Laboratory results: patent US12491170B2, “Stable treprostinil prodrugs” (United Therapeutics Corporation, priority 2020, dated 2025)
Where two headings read alike, the source gives them in different places.

Experiments:
[1] = Stability in liver microsomes, human; conditions: for AUC: human
[2] = Stability in cryopreserved hepatocytes, rat; conditions: for AUC: rat
[3] = Stability in liver microsomes, dog
[4] = dog
[5] = Stability in cryopreserved hepatocytes, dog; conditions: for AUC: dog
[6] = rat
[7] = Stability in human subcutaneous skin homogenate; conditions: for AUC: human
[8] = Stability in liver microsomes, rat
[9] = Stability in cryopreserved hepatocytes, human; conditions: for AUC: human

Structure (SMILES): CCCCCC(CCC1C(O)CC2Cc3c(cccc3OCC(=O)O)CC21)OC(=O)C(C)C (stereo not shown) [LXVII]
- Trep Concentration 0 min [1]: 1.02 µM
- Trep Concentration 10 min [1]: 0.877 µM
- Trep Concentration 20 min [1]: 0.755 µM
- Trep Concentration 30 min [1]: 0.664 µM
- Trep Concentration 60 min [1]: 0.393 µM
- AUC [1]: 40.60 µmol·min/L
- Trep Concentration (μM) 0 min [2]: 0 µM
- Trep Concentration (μM) 15 min [2]: 0.215 µM
- Trep Concentration (μM) 30 min [2]: 0.217 µM
- Trep Concentration (μM) 60 min [2]: 0.189 µM
- Trep Concentration (μM) 120 min [2]: 0.172 µM
- AUC [2]: 21.77 µmol·min/L
- Trep Concentration 0 min [3]: 0.987 µM
- Trep Concentration 10 min [3]: 0.972 µM
- Trep Concentration 20 min [3]: 0.982 µM
- Trep Concentration 30 min [3]: 0.993 µM
- Trep Concentration 60 min [3]: 0.816 µM
- AUC [4]: 56.58 µmol·min/L
- Trep Concentration (μM) 0 min [5]: 0.09 µM
- Trep Concentration (μM) 15 min [5]: 0.616 µM
- Trep Concentration (μM) 30 min [5]: 0.554 µM
- Trep Concentration (μM) 60 min [5]: 0.459 µM
- Trep Concentration (μM) 120 min [5]: 0.42 µM
- AUC [5]: 55.64 µmol·min/L
- AUC [6]: 25.20 µmol·min/L
- Trep Concentration 0 min [7]: 0 µM
- Trep Concentration 30 min [7]: 0.224 µM
- Trep Concentration 60 min [7]: 0.408 µM
- Trep Concentration 120 min [7]: 0.657 µM
- AUC [7]: 44.79 µmol·min/L
- Trep Concentration 0 min [8]: 0.281 µM
- Trep Concentration 10 min [8]: 0.369 µM
- Trep Concentration 20 min [8]: 0.419 µM
- Trep Concentration 30 min [8]: 0.471 µM
- Trep Concentration 60 min [8]: 0.433 µM
- Trep Concentration (μM) 0 min [9]: 0.0174 µM
- Trep Concentration (μM) 15 min [9]: 0.631 µM
- Trep Concentration (μM) 30 min [9]: 0.572 µM
- Trep Concentration (μM) 60 min [9]: 0.506 µM
- Trep Concentration (μM) 120 min [9]: 0.446 µM
- AUC [9]: 58.62 µmol·min/L

Structure (SMILES): CCCCCC(CCC1C(O)CC2Cc3c(cccc3OCC(=O)O)CC21)OP(=O)(O)O (stereo not shown) [VI]
- Trep Concentration 0 min [1]: 0.02 µM
- Trep Concentration 10 min [1]: 0.038 µM
- Trep Concentration 20 min [1]: 0.038 µM
- Trep Concentration 30 min [1]: 0.03 µM
- Trep Concentration 60 min [1]: 0.061 µM
- AUC [1]: 2.38 µmol·min/L
- Trep Concentration (μM) 0 min [2]: 0.128 µM
- Trep Concentration (μM) 15 min [2]: 0.693 µM
- Trep Concentration (μM) 30 min [2]: 0.635 µM
- Trep Concentration (μM) 60 min [2]: 0.564 µM
- Trep Concentration (μM) 120 min [2]: 0.53 µM
- AUC [2]: 66.92 µmol·min/L
- Trep Concentration 0 min [3]: 0.21 µM
- Trep Concentration 10 min [3]: 0.32 µM
- Trep Concentration 20 min [3]: 0.43 µM
- Trep Concentration 30 min [3]: 0.48 µM
- Trep Concentration 60 min [3]: 0.75 µM
- AUC [4]: 29.40 µmol·min/L
- Trep Concentration (μM) 0 min [5]: 0.0124 µM
- Trep Concentration (μM) 30 min [5]: 0.609 µM
- Trep Concentration (μM) 60 min [5]: 0.533 µM
- Trep Concentration (μM) 120 min [5]: 0.548 µM
- AUC [5]: 62.94 µmol·min/L
- AUC [6]: 31.40 µmol·min/L
- Trep Concentration 0 min [7]: 0 µM
- Trep Concentration 30 min [7]: 0.6 µM
- Trep Concentration 60 min [7]: 0.93 µM
- Trep Concentration 120 min [7]: 1.07 µM
- AUC [7]: 91.95 µmol·min/L
- Trep Concentration 0 min [8]: 0.27 µM
- Trep Concentration 10 min [8]: 0.39 µM
- Trep Concentration 20 min [8]: 0.46 µM
- Trep Concentration 30 min [8]: 0.53 µM
- Trep Concentration 60 min [8]: 0.73 µM
- Trep Concentration (μM) 0 min [9]: 0 µM
- Trep Concentration (μM) 15 min [9]: 0.223 µM
- Trep Concentration (μM) 30 min [9]: 0.365 µM
- Trep Concentration (μM) 60 min [9]: 0.466 µM
- Trep Concentration (μM) 120 min [9]: 0.540 µM
- AUC [9]: 48.73 µmol·min/L

Structure (SMILES): CCCCCC(CCC1C(O)CC2Cc3c(cccc3OCC(=O)O)CC21)OC(N)=O (stereo not shown) [XLII]
- Trep Concentration 0 min [1]: 0.361 µM
- Trep Concentration 10 min [1]: 0.297 µM
- Trep Concentration 20 min [1]: 0.293 µM
- Trep Concentration 30 min [1]: 0.273 µM
- Trep Concentration 60 min [1]: 0.219 µM
- AUC [1]: 16.45 µmol·min/L
- Trep Concentration (μM) 0 min [2]: 0.33 µM
- Trep Concentration (μM) 15 min [2]: 0.309 µM
- Trep Concentration (μM) 30 min [2]: 0.299 µM
- Trep Concentration (μM) 60 min [2]: 0.307 µM
- Trep Concentration (μM) 120 min [2]: 0.3 µM
- AUC [2]: 36.65 µmol·min/L
- Trep Concentration 0 min [3]: 0.335 µM
- Trep Concentration 10 min [3]: 0.312 µM
- Trep Concentration 20 min [3]: 0.311 µM
- Trep Concentration 30 min [3]: 0.308 µM
- Trep Concentration 60 min [3]: 0.323 µM
- AUC [4]: 18.91 µmol·min/L
- Trep Concentration (μM) 0 min [5]: 0.296 µM
- Trep Concentration (μM) 15 min [5]: 0.242 µM
- Trep Concentration (μM) 30 min [5]: 0.197 µM
- Trep Concentration (μM) 60 min [5]: 0.155 µM
- Trep Concentration (μM) 120 min [5]: 0.137 µM
- AUC [5]: 21.37 µmol·min/L
- AUC [6]: 18.22 µmol·min/L
- Trep Concentration 0 min [7]: 0 µM
- Trep Concentration 30 min [7]: 0 µM
- Trep Concentration 60 min [7]: 0 µM
- Trep Concentration 120 min [7]: 0 µM
- AUC [7]: 0.00 µmol·min/L
- Trep Concentration 0 min [8]: 0.322 µM
- Trep Concentration 10 min [8]: 0.296 µM
- Trep Concentration 20 min [8]: 0.314 µM
- Trep Concentration 30 min [8]: 0.308 µM
- Trep Concentration 60 min [8]: 0.29 µM
- Trep Concentration (μM) 0 min [9]: 0.297 µM
- Trep Concentration (μM) 15 min [9]: 0.274 µM
- Trep Concentration (μM) 30 min [9]: 0.298 µM
- Trep Concentration (μM) 60 min [9]: 0.275 µM
- Trep Concentration (μM) 120 min [9]: 0.217 µM
- AUC [9]: 31.93 µmol·min/L

Structure (SMILES): CCCCCC(CCC1C(O)CC2Cc3c(cccc3OCC(=O)O)CC21)OC(=O)CO (stereo not shown) [XLIV]
- Trep Concentration 0 min [1]: 0.624 µM
- Trep Concentration 10 min [1]: 0.632 µM
- Trep Concentration 20 min [1]: 0.549 µM
- Trep Concentration 30 min [1]: 0.52 µM
- Trep Concentration 60 min [1]: 0.307 µM
- AUC [1]: 29.94 µmol·min/L
- Trep Concentration (μM) 0 min [2]: 0.0352 µM
- Trep Concentration (μM) 15 min [2]: 0.186 µM
- Trep Concentration (μM) 30 min [2]: 0.307 µM
- Trep Concentration (μM) 60 min [2]: 0.393 µM
- Trep Concentration (μM) 120 min [2]: 0.514 µM
- AUC [2]: 43.07 µmol·min/L
- Trep Concentration 0 min [3]: 0.913 µM
- Trep Concentration 10 min [3]: 0.884 µM
- Trep Concentration 20 min [3]: 0.828 µM
- Trep Concentration 30 min [3]: 0.894 µM
- Trep Concentration 60 min [3]: 0.899 µM
- AUC [4]: 53.05 µmol·min/L
- Trep Concentration (μM) 0 min [5]: 0.0501 µM
- Trep Concentration (μM) 15 min [5]: 0.587 µM
- Trep Concentration (μM) 30 min [5]: 0.545 µM
- Trep Concentration (μM) 60 min [5]: 0.475 µM
- Trep Concentration (μM) 120 min [5]: 0.404 µM
- AUC [5]: 54.94 µmol·min/L
- AUC [6]: 11.30 µmol·min/L
- Trep Concentration 0 min [7]: 0 µM
- Trep Concentration 30 min [7]: 0.0277 µM
- Trep Concentration 60 min [7]: 0.0597 µM
- Trep Concentration 120 min [7]: 0.106 µM
- AUC [7]: 6.70 µmol·min/L
- Trep Concentration 0 min [8]: 0.0772 µM
- Trep Concentration 10 min [8]: 0.114 µM
- Trep Concentration 20 min [8]: 0.157 µM
- Trep Concentration 30 min [8]: 0.197 µM
- Trep Concentration 60 min [8]: 0.284 µM
- Trep Concentration (μM) 0 min [9]: 0.0377 µM
- Trep Concentration (μM) 15 min [9]: 0.406 µM
- Trep Concentration (μM) 30 min [9]: 0.534 µM
- Trep Concentration (μM) 60 min [9]: 0.553 µM
- Trep Concentration (μM) 120 min [9]: 0.506 µM
- AUC [9]: 58.45 µmol·min/L
